Experimental findings from patent US11208412B2 (DAEGU-GYEONGBUK MEDICAL INNOVATION FOUNDATION, priority 2017, dated 2021) are described below.

Assay in all cases: Kinase selectivity, DiscoverX scanMAX Kinase assay panel (% control)
Holding throughout (type): binding

For assay [1], the target named is T1, kinases of the scanMAX Kinase assay panel (Homo sapiens, UniProt P78356).
T1 construct: purchased DiscoverX Co. (contract measurement) scanMAX Kinase assay panel
T1 sequence (P78356 1-416): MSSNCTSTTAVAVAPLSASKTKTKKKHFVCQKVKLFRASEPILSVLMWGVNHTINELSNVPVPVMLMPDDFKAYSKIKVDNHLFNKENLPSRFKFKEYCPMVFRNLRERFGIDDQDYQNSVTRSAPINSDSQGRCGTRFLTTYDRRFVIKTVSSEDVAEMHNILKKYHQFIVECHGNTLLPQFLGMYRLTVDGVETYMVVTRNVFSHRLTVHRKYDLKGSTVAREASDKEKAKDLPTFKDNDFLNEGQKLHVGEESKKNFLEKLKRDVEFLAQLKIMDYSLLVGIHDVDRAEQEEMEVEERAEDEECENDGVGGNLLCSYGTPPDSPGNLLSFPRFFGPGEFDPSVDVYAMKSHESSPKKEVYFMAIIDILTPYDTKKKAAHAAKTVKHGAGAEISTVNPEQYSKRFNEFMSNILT
Particulars: PIP5K2B; 1 uM. Put shortly:
(§1)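 Binding-panel profiling at one concentration, 1 uM in DMSO; values are % of DMSO control after subtracting the positive-control floor. Less than 35% means activity on that kinase.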

Assay [2] has as its target T2, kinases of the scanMAX Kinase assay panel (Homo sapiens, UniProt P42680).
T2 construct: purchased DiscoverX Co. (contract measurement) scanMAX Kinase assay panel
T2 sequence (P42680 1-631): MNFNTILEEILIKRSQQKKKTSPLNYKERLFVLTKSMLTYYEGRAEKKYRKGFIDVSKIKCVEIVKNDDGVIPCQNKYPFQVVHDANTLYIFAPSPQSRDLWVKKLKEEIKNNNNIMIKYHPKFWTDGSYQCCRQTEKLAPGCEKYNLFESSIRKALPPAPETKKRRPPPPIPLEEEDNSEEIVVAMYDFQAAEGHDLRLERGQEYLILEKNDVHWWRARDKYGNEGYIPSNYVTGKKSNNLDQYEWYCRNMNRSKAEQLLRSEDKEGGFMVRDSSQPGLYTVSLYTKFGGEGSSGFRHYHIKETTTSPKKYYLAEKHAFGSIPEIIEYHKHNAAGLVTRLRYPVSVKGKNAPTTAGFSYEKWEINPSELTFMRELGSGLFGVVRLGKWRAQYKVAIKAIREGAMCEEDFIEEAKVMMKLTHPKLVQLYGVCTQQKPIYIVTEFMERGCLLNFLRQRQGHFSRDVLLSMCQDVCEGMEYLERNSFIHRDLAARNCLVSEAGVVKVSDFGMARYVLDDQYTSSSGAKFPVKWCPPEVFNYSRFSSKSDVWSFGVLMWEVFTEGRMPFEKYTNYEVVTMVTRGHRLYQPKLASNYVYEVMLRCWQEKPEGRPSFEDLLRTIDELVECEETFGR
The note with it: kinase TEC; 1 uM in DMSO. Put shortly: as §1

Assay [3] deals with T3, kinases of the scanMAX Kinase assay panel (Homo sapiens, UniProt Q15759).
T3 construct: purchased DiscoverX Co. (contract measurement) scanMAX Kinase assay panel
T3 sequence (Q15759 whole entry): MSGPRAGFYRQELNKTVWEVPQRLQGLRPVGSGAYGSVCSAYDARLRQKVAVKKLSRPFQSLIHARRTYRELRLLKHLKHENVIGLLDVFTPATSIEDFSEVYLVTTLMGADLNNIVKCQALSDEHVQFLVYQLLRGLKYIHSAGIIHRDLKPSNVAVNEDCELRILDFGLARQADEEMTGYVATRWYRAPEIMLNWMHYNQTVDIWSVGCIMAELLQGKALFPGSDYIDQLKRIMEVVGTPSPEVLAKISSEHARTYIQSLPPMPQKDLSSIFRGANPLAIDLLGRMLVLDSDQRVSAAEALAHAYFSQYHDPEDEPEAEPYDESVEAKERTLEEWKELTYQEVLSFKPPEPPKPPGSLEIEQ
Particulars: p38-beta; 1 uM. Put shortly:
as §1

For assay [4], the target named is T4, kinases of the scanMAX Kinase assay panel (Homo sapiens, UniProt Q99558).
T4 construct: purchased DiscoverX Co. (contract measurement) scanMAX Kinase assay panel
T4 sequence (Q99558 whole entry): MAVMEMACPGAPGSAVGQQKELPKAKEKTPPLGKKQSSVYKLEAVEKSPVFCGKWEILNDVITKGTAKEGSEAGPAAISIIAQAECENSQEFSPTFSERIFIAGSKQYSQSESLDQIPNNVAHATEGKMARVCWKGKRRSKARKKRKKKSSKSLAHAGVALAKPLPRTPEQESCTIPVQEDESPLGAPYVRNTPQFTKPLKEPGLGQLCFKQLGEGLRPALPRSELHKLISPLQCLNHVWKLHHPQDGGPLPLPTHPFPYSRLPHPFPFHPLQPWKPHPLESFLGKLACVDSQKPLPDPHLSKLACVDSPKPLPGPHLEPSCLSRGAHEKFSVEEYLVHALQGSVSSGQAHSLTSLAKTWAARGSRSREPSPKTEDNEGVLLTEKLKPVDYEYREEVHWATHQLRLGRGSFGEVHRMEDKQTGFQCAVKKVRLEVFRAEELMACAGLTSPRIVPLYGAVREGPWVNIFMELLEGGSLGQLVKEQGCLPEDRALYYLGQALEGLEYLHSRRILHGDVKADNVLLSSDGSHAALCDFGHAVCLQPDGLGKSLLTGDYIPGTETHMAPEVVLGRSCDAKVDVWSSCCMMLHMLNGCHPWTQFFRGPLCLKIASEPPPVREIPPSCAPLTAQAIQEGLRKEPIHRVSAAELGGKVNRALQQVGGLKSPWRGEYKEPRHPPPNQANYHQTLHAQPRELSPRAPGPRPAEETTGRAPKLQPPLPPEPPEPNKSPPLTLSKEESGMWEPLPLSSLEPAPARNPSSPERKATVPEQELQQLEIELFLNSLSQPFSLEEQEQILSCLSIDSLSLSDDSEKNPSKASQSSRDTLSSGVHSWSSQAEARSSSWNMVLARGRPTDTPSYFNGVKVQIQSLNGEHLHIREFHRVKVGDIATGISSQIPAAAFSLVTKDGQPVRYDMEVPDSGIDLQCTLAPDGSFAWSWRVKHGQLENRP
Particulars: NIK; 1 uM. Put shortly:
as §1

Assay [5] addresses T5, kinases of the scanMAX Kinase assay panel (Homo sapiens, UniProt P57078).
T5 construct: purchased DiscoverX Co. (contract measurement) scanMAX Kinase assay panel
T5 sequence (P57078 1-832): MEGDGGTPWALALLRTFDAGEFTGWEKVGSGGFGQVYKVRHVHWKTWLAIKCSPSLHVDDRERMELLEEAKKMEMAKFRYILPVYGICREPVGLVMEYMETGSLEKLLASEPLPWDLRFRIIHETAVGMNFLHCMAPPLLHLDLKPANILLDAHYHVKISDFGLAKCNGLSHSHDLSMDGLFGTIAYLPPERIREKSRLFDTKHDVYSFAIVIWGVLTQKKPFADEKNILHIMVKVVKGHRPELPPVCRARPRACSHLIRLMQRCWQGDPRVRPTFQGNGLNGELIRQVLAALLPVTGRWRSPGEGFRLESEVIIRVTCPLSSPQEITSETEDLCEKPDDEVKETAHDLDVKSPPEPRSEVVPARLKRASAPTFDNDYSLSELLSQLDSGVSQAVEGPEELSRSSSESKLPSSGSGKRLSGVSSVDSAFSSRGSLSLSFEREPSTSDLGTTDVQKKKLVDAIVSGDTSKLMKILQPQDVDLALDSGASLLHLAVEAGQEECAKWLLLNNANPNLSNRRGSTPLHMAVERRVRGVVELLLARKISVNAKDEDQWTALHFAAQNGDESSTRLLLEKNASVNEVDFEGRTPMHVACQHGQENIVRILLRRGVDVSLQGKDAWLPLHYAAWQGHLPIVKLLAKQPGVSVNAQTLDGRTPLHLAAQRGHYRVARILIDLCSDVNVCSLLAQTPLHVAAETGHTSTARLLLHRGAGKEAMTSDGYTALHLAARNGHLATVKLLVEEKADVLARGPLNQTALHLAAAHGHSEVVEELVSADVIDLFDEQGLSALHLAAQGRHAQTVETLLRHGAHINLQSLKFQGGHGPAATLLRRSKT
The note with it: kinase RIPK4; 1 uM in DMSO. Put shortly: as §1

In the case of `CNc1nc(Nc2ccc(C(=O)N3CCOCC3)cc2OC)nc2[nH]cc(C#N)c12` [Example 1, 2-((2-methoxy-4-(morpholine-4-carbonyl)phenyl)amino)-4-(methylamino)-7H-pyrrolo[2,3-d]pyrimidine-5-carbonitrile], the remaining binding at 1 µM stood at 100% in assay [1]; 100% in assay [2]; 98% in assay [3]; 3.7% in assay [4]; 72% in assay [5].

In the case of `CC1(Nc2nc(Nc3cnn([C@H]4CCN(C5COC5)C[C@@H]4F)c3Cl)nc3[nH]cc(C#N)c23)CC1` [Example 52, 2-((5-chloro-1-((3S,4S)-3-fluoro-1-(oxetane-3-yl)piperidine-4-yl)-1H-pyrazole-4-yl)amino)((1-methylcyclopropyl)amino)-7H-pyrrolo[2,3-d]pyrimidine-5-carbonitrile], the remaining binding at 1 µM in assay [1] stood at 0.45%; in assay [2], 24%; in assay [3] it was 92%; in assay [4] it was 7.4%; in assay [5], 1.6%.

As for `CCNc1nc(Nc2ccc(C(=O)N3CCC(N4CCOCC4)CC3)cc2OC)nc2[nH]cc(C(F)(F)F)c12` [Example 104, (4-((4-(ethylamino)-5-(trifluoromethyl)-7H-pyrrolo[2,3-d]pyrimidine-2-yl)amino)-3-methoxyphenyl)(4-morpholinopiperidine-1-yl)methanone], the remaining binding at 1 µM in assay [1] stood at 100%; in assay [2], 86%; in assay [3], 100%; in assay [4], 16%; in assay [5], 0.6%.
